The test system of one data set is HeLa cells. In words: Confocal imaging and colocalization in live HeLa cells. The format is cell-based. As to conditions: LNPs, no stimulation. How it is done: FIGS. 9A-9E: confocal imaging of lipid environments targeted by ONOO^− in live HeLa cells. Cells were seeded into glass microscope dishes, incubated with LNPs (50 μM) and stained with organelle trackers and/or actin dye prior to imaging. LNPs obtained from a 47.5:47.5:5.0 molar ratio of DOTMA, DOPE, and DPPC-TC-ONOO^−. FIG. 9A: cells treated with LNPs, stimulated with IFN-γ/LPS/PMA. Time coarse images acquired upon PMA treatment. FIG. 9B: cells treated with LNPs and 1400 W. FIG. 9C: cells treated with LNPs, then with 1400 W and IFN-γ/LPS/PMA. FIGS. 9D-9E: quantitative colocalization study of cells treated with LNPs and stimulated with IFN-γ/LPS/PMA. Pearson's correlation coefficient (PCC) was calculated for quantitative assessment. Organelle trackers: ER-Tracker™, MitoTracker™, CellLight™ Golgi-RFP, LysoTracker™. Cell cytoskeleton was assessed with CellMask™ Deep Red Actin Tracking Stain. DPPC-TC channel: 405/475 nm. Scale bars=20 μm (FIGS. 9A-9D) or 5 μm (FIG. 9E). With the utility of DPPC-TC-ONOO^− proven in synthetic protocell membranes, incorporation into live HeLa and RAW 264.7 cells was sought, which are relevant to redox-induced stress and have well-recognized pathways for RNS and ROS production. Lipid nanoparticles (LNPs) (˜100 nm in diameter) was used to deliver DPPC-TC-ONOO− into cells. This method circumvented the limited solubility of DPPC-TC-ONOO− due to the relatively hydrophobic butanone-coumarin motif. LNPs were obtained via sonication from 1,2-di-O-octadecenyl-3-trimethylammonium propane (DOTMA), 1,2-dioleoyl-sn-glycero-3-phosphoethanolamine (DOPE), and DPPC-TC-ONOO− (47.5:47.5:5.0 molar ratio), which were hydrated with a 300 mM sucrose solution. DOTMA and DOPE were chosen as the carrier lipids due to their cationic/zwitterionic natures, which has been postulated to enhance uptake through the cell membrane. The impact of different LNP compositions and incubation times on the cellular incorporation of DPPC-TC-ONOO^− was assessed. […] Specifically, LNPs containing greater than 10 mol % DPPC-TC-ONOO− were considerably more heterogenous in size (up to […] observed, in contrast to ˜100 nm) and nonuniform in vesicle lamellarity. Those with less than 4 mol % DPPC-TC-ONOO− led to insufficient fluorescence signal. To balance these counteracting factors, 5 mol % DPPC-TC-ONOO− was used, with 47.5 mol % DOTMA and DOPE, each. In these initial assays, cells were incubated with LNPs for up to 15 hours to complete the uptake and intracellular localization of DPPC-TC-ONOO−. Shorter incubation times (3-to-5 hours) led to its uptake but not subcellular localization. […] However, high serum concentration in DMEM caused interference between LNPs and serum-protein, resulting in aggregate formation as observed by microscopy. To overcome this obstacle, LNPs (50 μM) were used in a mixture of 2/3 volumetric ratio of sucrose solution and Opti-MEM™, a reduced serum medium known to increase the efficiency of lipofection. […] For a physiologically relevant stress model, the standard stimulation condition involving IFN-γ/LPS/PMA was employed. Treatment of cells with IFN-γ/LPS leads to the endogenous production of nitric oxide and PMA provokes increased levels of superoxide. These two reactive species combine to form peroxynitrite, as described elsewhere herein. […] The intracellular redox selectivity of DPPC-TC-ONOO^− was also assessed using N-(3-(aminomethyl)benzyl)-acetamidine, known as 1400 W, which inhibits the production of NO· by irreversibly binding to iNOS. […] To determine whether DPPC-TC-ONOO^− localizes and functions at a specific subcellular compartment in HeLa, a comprehensive colocalization study was performed with dyes specific for lipid-rich and membrane-enclosed organelles, including the ER, mitochondrion, Golgi apparatus, and lysosome (FIGS. 9D-9E). In addition, actin stain was used to gain a visual insight into the cytoskeletal structure of the whole cell. […]

Another data set concerns HeLa and RAW 264.7 cells. In words: MTT cell viability assay. The format is cell-based. As to conditions: 8-250 μM, 24-hour period. The method, then:
With a feasible liposome preparation and treatment protocol established for live cell imaging, attention was turned to assessing the cytocompatibility of the LNPs, with or without DPPC-TC-ONOO^−, DPPC-TC, and the oxa-spiro[4,5] decenone 6a. A standard 3-(4,5-dimethylthiazol-2-yl)-2,5-diphenyl tetrazolium bromide (MTT) cell viability assay in HeLa and RAW 264.7 cells treated with these molecules (8-250 μM) over a 24-hour period. The dose-response curves provided high IC50 values for each compound: DPPC-TC-ONOO− (≥100 μM), DPPC-TC (≥50 μM), and 6 (≥70 μM).

The nature of data set [1]: Photophysical characterization of probes and uncaged forms (relative fluorescence quantum yield, extinction coefficient, brightness). The format is physicochemical. As to conditions: for Brightness: in M⁻¹·cm⁻¹ (unit assumed). The method, then: The pKa of TEG-TC was determined to be 7.1±0.1 using UV-Vis spectrophotometric measurements. Under the confocal imaging conditions (pH 7.5-8.5 with cell-free assays, pH 7.4 with cells), a substantial population of the 7-hydroxycoumarin should exist in its aryloxide form. The change in coumarin fluorogenicity was assessed upon uncaging the probes from the oxobutylphenyl carbonate by measuring the relative fluorescence quantum yield (ΦFrel) values (Table 2). Coumarin 343 was used as a standard, which has an absolute fluorescence quantum yield ([…]) of 0.63 in ethanol. The ΦFrel values of TEG-TC-ONOO^− (entry 1) and DPPC-TC-ONOO^− (entry 3) were measured as 0.08 and 0.09, respectively. […] The ΦFrel values for TEG-TC (entry 2) and DPPC-TC (entry 4), which were synthesized independently, were measured as 0.66 and 0.64, respectively.
Next, the impact of caging and uncaging of the coumarin or fluorescein moieties on their fluorogenicity was assessed by measuring the relative fluorescence quantum yield (ΦFrel) values (Table 3). Coumarin 343 was used as the standard for measuring ΦFrel of the triazole-coumarin compounds (TEG-TC-H2S, TEG-TC, DPPC-TC-H2S, and DPPC-TC) whereas fluorescein for the triazole-fluorescein compounds (TEG-TF-H2O2, TEG-TF, and DPPC-TF-H2O2, and DPPC-TF). Relative to coumarin 343, whose absolute fluorescence quantum yield (ΦF) is 0.63 in ethanol, ΦFrels of the H2S probes TEG-TC-H2S (entry 1) and DPPC-TC-H2S (entry 3) were determined to be 0.07 and 0.03, respectively.
The pKa of TEG-TC was previously found to be to be 7.1±0.1 using UV-Vis spectrophotometric measurements. Under the fluorescence activation assay conditions that are employed here (Tris 50 mM, pH 7.5), a substantial population of the coumarin moiety is expected to be in its aryloxide anion form. Relative to fluorescein, whose ΦF is 0.79 in ethanol, ΦFrel values of the H2O2 probes TEG-TF-H2O2 (entry 5) and DPPC-TF-H2O2 (entry 7) were determined to be 0.04 and 0.02, respectively.

Data set [2] is described as follows: Specificity of TEG-TC-H2S against other RSS. The method, then: (§1) The redox-specificities of the non-amphiphilic probes, TEG-TC-H2S or TEG-TF-H2O2, were assessed by subjecting them to various RSS or ROS (FIGS. 13A-13B). Change in fluorescence intensity following excitation of each sample containing the respective probe was measured over 120 minutes of incubation and presented based on the signal-to-background ratio F/F0, where F and F0 are defined as the fluorescence with and without the redox species. The F/F0 of the untreated samples were set to 1 for comparisons. […] Samples containing TEG-TF-H2O2 and treated with 100 μM H2O2 presented a steady fluorescence enhancement within 2 hours, resulting in 4.4-fold higher fluorescence than those of the untreated samples (FIG. 13B).
(§2) The specificity of TEG-TC-H2S toward H2S was evaluated by comparing its reactivity against different RSS, cysteine (Cys), glutathione (GSH), sulfite (SO3^2−), and thiosulfate (S2O3^2−). At 1 mM initial concentration and a total incubation time of 2 hours, these sulfur species induced an increase in coumarin fluorescence by less than 25% compared to the untreated sample (FIG. 13A). […] The specificity of TEG-TF-H2O2 toward H2O2 was also assessed, by incubating the samples containing TEG-TF-H2O2 with 100 μM either hydroxyl radical (·OH), nitric oxide (NO), or superoxide radical (O2·^−) for 2 hours. […]

Data set [3] can be described thus: Fluorescence activation and LoD of TEG-TC-H2S with H2S in Tris buffer. The method, then:
FIGS. 13A-13D: specificity (FIGS. 13A-13B) and limit of detection (LoD) (FIGS. 13C-13D) of TEG-TC-H2S and TEG-TF-H2O2. LoD measurements for the probes TEG-TC-H2S (390/475 nm) and TEG-TF-H2O2 (485/525 nm) were performed in Tris buffer (50 mM, pH 7.5). Error bars represent the standard deviation; n=3. Single-tailed Student's t test: *, P<0.05; **, P<0.01; ***, P<0.001; ****, P<0.0001.
as §1
as §2, with “hours. Among these three reactive oxygen species, ·OH induced the highest fluorescence increase (2.2-fold), which was lower than that for H2O2 (4.4-fold). The relatively low yet observable reactivity of ·OH may have been due, in large part, to the residual unreacted H2O2 used for generating ·OH.” for “hours.”

The mark [4] stands for this setting: Table 3, brightness compared to that of DPPC-TC-H2S.
The mark [5] stands for this setting: Table 3, brightness compared to that of DPPC-TF-H2O2.

For the compound `CCCCCCCCCCCCCCCC(=O)OCC(COP(=O)([O-])OCC[N+](C)(C)Cc1cn(-c2cc3ccc(O)cc3oc2=O)nn1)OC(=O)CCCCCCCCCCCCCCC` (racemic) [DPPC-TC], the “fluorescence at 405/475 nm” value in the data set on HeLa cells was “strong coumarin fluorescence”. The IC50 in the data set with HeLa and RAW 264.7 cells was at least 50 µM. Besides, in data set [1], the Emmax worked out at 472.0 nm; the Exmax is reported as 398.0 nm; the “Ext. Coeff.” value came out at 13749 M⁻¹ cm⁻¹; the “enhanced brightness, uncaging product vs caged probe” value is 120 fold. The Brightness in data set [1] came to 8799. Also, the “Relative Brightness” value in data set [1] (Table 2, DPPC-TC-ONOO^− = 1.0) was 35.1. The “Relative Brightness” value in data set [1] (setting [4]) is 122.2. For the same compound, the “Quantum Yield (relative fluorescence quantum yield ΦFrel)” value in data set [1] (standard coumarin 343) amounted to 0.64.

Take `CCCCCCCCCCCCCCCC(=O)OCC(COP(=O)([O-])OCC[N+](C)(C)Cc1cn(-c2ccc3c(c2)C(=O)OC32c3ccc(O)cc3Oc3cc(O)ccc32)nn1)OC(=O)CCCCCCCCCCCCCCC` (racemic) [DPPC-TF]: in data set [1], the Emmax was found to be 523.6 nm, the Exmax is 498.1 nm, the “Ext. Coeff.” value stood at 28990 M⁻¹ cm⁻¹ and the Brightness is 18264. For the same compound, the “Relative Brightness” value in data set [1] (setting [5]) worked out at 85.3. Moreover, the “Quantum Yield (relative fluorescence quantum yield ΦFrel)” value in data set [1] (standard fluorescein) came to 0.63.

With `[N-]=[N+]=Nc1ccc(COc2ccc3cc(-n4cc(COCCOCCOCCO)nn4)c(=O)oc3c2)cc1` [TEG-TC-H2S], in data set [2], the “fluorescence activation in the presence of H2S compared to the other RSS” value is at least 5 fold. The “increase in coumarin fluorescence compared to the untreated sample” value in data set [2] (Cys, GSH, SO3^2−, S2O3^2− at 1 mM, 2 hours) was “less than 25%”. The “fluorescence compared to the sample untreated” value in data set [3] (1 mM H2S, 2 hours of incubation, Tris pH 7.5) worked out at 2.2 fold. Also, the “increase in fluorescence intensity” value in data set [3] (H2S 1 mM, 2 hours) was 120%. In data set [3] (minimum H2S concentration at which F is statistically higher than F0, 390/475 nm, Tris 50 mM pH 7.5), the LoD stood at 100 µM. Also, in data set [1], the Emmax stood at 475.5 nm, the Exmax is 392.3 nm, the “Ext. Coeff.” value is 5347 M⁻¹ cm⁻¹ and the Brightness turned out to be 374. Besides, the “Relative Brightness” value in data set [1] (setting [4]) is given as 5.2. For the same compound, the “Quantum Yield (relative fluorescence quantum yield ΦFrel)” value in data set [1] (standard coumarin 343) is reported as 0.07.

`O=C1OC2(c3ccc(O)cc3Oc3cc(O)ccc32)c2ccc(-n3cc(COCCOCCOCCO)nn3)cc21` [TEG-TF]: in data set [1], the Emmax is given as 522.6 nm, the Exmax stood at 494.3 nm, the “Ext. Coeff.” value is 35982 M⁻¹ cm⁻¹ and the Brightness is recorded as 26267. In data set [1] (setting [5]), the “Relative Brightness” value was found to be 122.7. In addition, the “Quantum Yield (relative fluorescence quantum yield ΦFrel)” value in data set [1] (standard fluorescein) stood at 0.73.

oxa-spiro[4,5] decenone [Compound 6]: the IC50 in the data set with HeLa and RAW 264.7 cells is at least 70 µM.

The values are drawn from patent US20240385182A1, “MASKED FLUOROGENIC LIPID COMPOUNDS, LIPID PARTICLES COMPRISING THE SAME, AND METHODS OF USE THEREOF” (Rutgers, The State University of New Jersey, priority 2023, published 2024).
